Test [1] concerns the target T1, CA I (Homo sapiens, UniProt P00915). As to the kind of experiment: Fluorescent thermal shift assay (TSA), CA I. It counts as binding. The settings on record: 37° C., pH 7.0, read-out: Dissociation constants Kd to CA I (converted).
The target in test [2] is T2, CA II (Homo sapiens, UniProt P00918). The experiment in a line: Fluorescent thermal shift assay (TSA), CA II. The class given is binding. As to conditions: 37° C., pH 7.0, read-out: Dissociation constants Kd to CA II (converted).
In test [3] the target is T3, CA VII (Homo sapiens, UniProt P43166). As to the kind of experiment: Fluorescent thermal shift assay (TSA), CA VII. As to conditions: 37° C., pH 7.0, read-out: Dissociation constants Kd to CA VII (converted). The class given is binding.
Test [4] deals with T4, CA XII (Homo sapiens, UniProt O43570). The experiment in a line: Fluorescent thermal shift assay (TSA), CA XII. The class given is binding. As to conditions: 37° C., pH 7.0, read-out: Dissociation constants Kd to CA XII (converted).
For test [5], the target named is T5, CA XIII (Homo sapiens, UniProt Q8N1Q1). The experiment in a line: Fluorescent thermal shift assay (TSA), CA XIII. The settings on record: 37° C., pH 7.0, read-out: Dissociation constants Kd to CA XIII. The class given is binding.
Test [6] concerns the target T1, CA I. The experiment in a line: Isothermal titration calorimetry (ITC), CA I. It counts as binding. The settings on record: 37° C., pH 7.0, read-out: Dissociation constants Kd to CA I. For orientation: In ITC the heat of successive injections is recorded.
Test [7] deals with T3, CA VII. The experiment in a line: Isothermal titration calorimetry (ITC), CA VII. As to conditions: 37° C., pH 7.0, read-out: Dissociation constants Kd to CA VII. It counts as binding.
In test [8] the target is T4, CA XII. As to the kind of experiment: Isothermal titration calorimetry (ITC), CA XII. The class given is binding. The settings on record: 37° C., pH 7.0, read-out: Dissociation constants Kd to CA XII.
In test [9] the target is T2, CA II. As to the kind of experiment: biochemical.
In test [10] the target is T5, CA XIII. As to the kind of experiment: biochemical.
Test [11] addresses T2, CA II. As to the kind of experiment: CO2 hydration assay (stopped-flow). It counts as biochemical.

From US9725467B2, “Fluorinated benzenesulfonamides as inhibitors of carbonic anhydrase” (VILNIUS UNIVERSITY, priority 2012, dated 2017) come the findings set out here.

pKd, pKi: −log10 of the molar value.

T3 sequence (P43166 whole entry): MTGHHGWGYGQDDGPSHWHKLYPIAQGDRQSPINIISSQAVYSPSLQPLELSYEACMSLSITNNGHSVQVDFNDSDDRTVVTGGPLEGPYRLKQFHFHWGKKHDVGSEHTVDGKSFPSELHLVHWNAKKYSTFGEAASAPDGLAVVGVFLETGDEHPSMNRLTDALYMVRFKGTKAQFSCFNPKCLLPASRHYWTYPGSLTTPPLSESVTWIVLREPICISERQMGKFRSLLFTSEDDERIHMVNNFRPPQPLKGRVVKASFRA
T5 sequence (Q8N1Q1 whole entry): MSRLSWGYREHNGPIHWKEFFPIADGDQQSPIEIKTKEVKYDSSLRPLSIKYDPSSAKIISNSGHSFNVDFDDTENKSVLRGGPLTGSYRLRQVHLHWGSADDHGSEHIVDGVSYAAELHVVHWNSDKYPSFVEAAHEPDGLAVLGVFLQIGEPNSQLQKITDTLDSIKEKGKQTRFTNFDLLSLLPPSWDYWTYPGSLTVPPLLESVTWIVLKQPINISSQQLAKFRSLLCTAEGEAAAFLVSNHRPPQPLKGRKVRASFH
T4 sequence (O43570 30-291 limits assumed): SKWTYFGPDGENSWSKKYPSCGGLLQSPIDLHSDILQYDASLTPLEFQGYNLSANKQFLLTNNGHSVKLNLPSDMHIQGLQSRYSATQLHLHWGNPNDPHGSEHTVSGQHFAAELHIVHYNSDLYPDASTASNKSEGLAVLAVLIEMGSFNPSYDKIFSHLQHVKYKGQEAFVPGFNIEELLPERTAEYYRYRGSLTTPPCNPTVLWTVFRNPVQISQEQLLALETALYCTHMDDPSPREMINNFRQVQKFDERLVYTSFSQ
T1 sequence (P00915 whole entry): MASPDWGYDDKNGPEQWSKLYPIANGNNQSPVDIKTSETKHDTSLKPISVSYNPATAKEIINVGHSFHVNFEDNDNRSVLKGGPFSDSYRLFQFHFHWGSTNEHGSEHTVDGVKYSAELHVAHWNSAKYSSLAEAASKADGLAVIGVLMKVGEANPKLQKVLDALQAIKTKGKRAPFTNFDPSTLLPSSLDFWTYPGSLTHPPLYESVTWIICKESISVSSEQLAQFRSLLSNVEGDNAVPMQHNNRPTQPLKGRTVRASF

On to `NS(=O)(=O)c1c(F)c(F)c(SCCc2ccccc2)c(F)c1NC1Cc2ccccc2C1` [Compound 3l, 2-(2,3-dihydro-1H-inden-2-ylamino)-3,5,6-trifluoro-4-[(2-phenylethyl)thio]benzenesulfonamide], for which the Kd (in general, the concentration at which binding is half-saturated) was 5000 nM on CA I [1], 3300 nM on CA II [2], 4000 nM at CA VII [3] and 1700 nM on CA XII [4]. In addition, the pKd – broadly, the negative decadic logarithm of the Kd, by convention in mol/L – at CA XIII [5] was 7.00.
For `NS(=O)(=O)c1c(F)c(F)c(S(=O)(=O)CCc2ccccc2)c(N[C@H](c2ccccc2)[C@@H](O)c2ccccc2)c1F` [Compound 9o, 3-{[(1R,2S)-2-hydroxy-1,2-diphenylethyl]amino}-2,5,6-trifluoro-4-[(2-phenylethyl)sulfonyl]benzenesulfonamide], the Kd at CA I [1] is 770 nM; at CA II [2] it was 91 nM; at CA VII [3] it was 40 nM; on CA XII [4] it was 400 nM. Besides, the pKd on CA XIII [5] is 8.17.
Consider “3-{[4-(aminosulfonyl)-2,3,5,6-tetrafluorophenyl]thio}-[1,2,3]thiadiazolo[3,4-a]benzimidazole [Compound 2w]”, for which the Kd on CA I [1] was 0.4 nM; on CA VII [3] it was 13 nM; on CA XII [4], 110 nM.
On to `NS(=O)(=O)c1c(F)c(F)cc(F)c1NC1CCCCCCC1` [Compound 8a, 2-(cyclooctylamino)-3,5,6-trifluorobenzenesulfonamide], for which the Kd on CA I [1] is 167 nM; on CA II [2], 200 nM; on CA VII [3], 167 nM; on CA XII [4], 833 nM. For the same compound, the negative logarithm of the Kd (pKd) on CA XIII [5] is 7.00.
With `COc1cccc(OC)c1CNc1c(F)c(S(N)(=O)=O)c(F)c(F)c1S(=O)(=O)CCc1ccccc1` [Compound 9h, 3-[(2,6-dimethoxybenzyl)amino]-2,5,6-trifluoro-4-[(2-phenylethyl)sulfonyl]benzenesulfonamide], the Kd was 58.8 nM on CA I [1], 22.2 nM on CA II [2], 667 nM on CA VII [3] and 167 nM on CA XII [4]. The negative logarithm of the Kd (pKd) at CA XIII [5] is 8.08.
In the case of `COc1ccc(CNc2c(F)c(S(N)(=O)=O)c(F)c(F)c2S(=O)(=O)CCO)cc1OC` [Compound 10e, 3-[(3,4-dimethoxybenzyl)amino]-2,5,6-trifluoro-4-[(2-hydroxyethyl)sulfonyl]benzenesulfonamide], the Kd at CA I [1] is 83.3 nM; on CA II [2] it was 25 nM; on CA VII [3] it was 14.3 nM; at CA XII [4], 66.7 nM. Further, on CA XIII [5], the negative logarithm of the Kd (pKd) was 8.37.
As to `CC(Nc1c(F)c(SCCc2ccccc2)c(F)c(F)c1S(N)(=O)=O)c1ccccc1` (stereo not shown) [Compound 3d, 2-[(1-phenylethyl)amino]-3,5,6-trifluoro-4-[(2-phenylethyl)thio]benzenesulfonamide], the dissociation constant Kd was 1700 nM at CA I [1], 3300 nM at CA II [2], 4000 nM on CA VII [3] and 5000 nM on CA XII [4]. Also, the pKd at CA XIII [5] is 7.40.
For `NS(=O)(=O)c1c(F)c(F)c(S(=O)(=O)CCO)c(NCc2ccccc2)c1F` [Compound 10a, 3-(benzylamino)-2,5,6-trifluoro-4-[(2-hydroxyethyl)sulfonyl]benzenesulfonamide], the Kd was 200 nM on CA I [1] and 130 nM on CA VII [3]. The pKd on CA XIII [5] was 7.85; on CA I [6] it was 6.89; on CA VII [7], 6.39; on CA XII [8] it was 7.91; on CA II [9] it was 6.86; at CA XIII [10], 7.34.
On to `CC(C)Nc1c(F)c(SCCc2ccccc2)c(F)c(F)c1S(N)(=O)=O` [Compound 3a, 2-(isopropylamino)-3,5,6-trifluoro-4-[(2-phenylethyl)thio]benzenesulfonamide], for which the Kd is 3300 nM on CA I [1], 500 nM at CA II [2], 130 nM on CA VII [3] and 2900 nM on CA XII [4]. Further, the pKd at CA XIII [5] is 7.17.
Turning to `NS(=O)(=O)c1c(F)c(F)c(SCCO)c(F)c1N[C@H]1CCc2ccccc21` [Compound 4e, 2-[(1S)-2,3-dihydro-1H-inden-1-ylamino]-3,5,6-trifluoro-4-[(2-hydroxyethyl)thio]benzenesulfonamide], the Kd was 8300 nM on CA I [1], 2780 nM at CA II [2], 1100 nM at CA VII [3] and 1250 nM at CA XII [4]. At CA XIII [5], the pKd is 7.48. Besides, the pKi (usually the Ki on a negative log10 scale, so that one unit is a factor of ten) on CA II [11] was 6.30.
As for `COc1ccc(CNc2c(F)c(S(N)(=O)=O)c(F)c(F)c2S(=O)(=O)CCc2ccccc2)cc1OC` [Compound 9i, 3-[(3,4-dimethoxybenzyl)amino]-2,5,6-trifluoro-4-[(2-phenylethyl)sulfonyl]benzenesulfonamide], the Kd on CA I [1] is 213 nM; on CA II [2], 22.2 nM; on CA VII [3], 6.7 nM; at CA XII [4], 250 nM. Further, the pKd on CA XIII [5] was 8.48.
On to `NS(=O)(=O)c1c(F)c(F)c(S(=O)(=O)CCc2ccccc2)c(NCc2ccccc2)c1F` [Compound 9c, 3-(benzylamino)-2,5,6-trifluoro-4-[(2-phenylethyl)sulfonyl]benzenesulfonamide], for which the results for the Kd on CA I [1] and on CA VII [3] were 56 nM and 5 nM, respectively. For the same compound, the negative logarithm of the Kd (pKd) on CA XIII [5] was 8.60.
Take `NS(=O)(=O)c1c(F)c(F)c(SCCc2ccccc2)c(F)c1NC1CCCCC1` [Compound 3f, 2-(cyclohexylamino)-3,5,6-trifluoro-4-[(2-phenylethyl)thio]benzenesulfonamide]: the Kd at CA I [1] was 25000 nM; at CA II [2], 250 nM; at CA VII [3], 170 nM; on CA XII [4] it was 500 nM. For the same compound, the pKd at CA XIII [5] was 6.30.
Turning to `COc1cccc(OC)c1CNc1c(F)c(S(N)(=O)=O)c(F)c(F)c1S(=O)(=O)CCO` [Compound 10d, 3-[(2,6-dimethoxybenzyl)amino]-2,5,6-trifluoro-4-[(2-hydroxyethyl)sulfonyl]benzenesulfonamide], the Kd at CA I [1] is 200 nM; on CA II [2], 16.7 nM; on CA VII [3], 40 nM; at CA XII [4], 66.7 nM. Also, the pKd at CA XIII [5] is 7.60.
In the case of `NS(=O)(=O)c1c(F)c(F)c(S(=O)(=O)CCc2ccccc2)c(NC23CC4CC(CC(C4)C2)C3)c1F` [Compound 9j, 3-(1-adamantylamino)-2,5,6-trifluoro-4-[(2-phenylethyl)sulfonyl]benzenesulfonamide], the dissociation constant Kd is 500 nM at CA I [1], 50 nM at CA II [2], 5 nM at CA VII [3] and 17 nM at CA XII [4]. At CA XIII [5], the pKd is 8.25.
`NS(=O)(=O)c1c(F)c(F)c(S(=O)(=O)CCc2ccccc2)c(NCCc2ccccc2)c1F` [Compound 9d, 3-[(2-phenylethy)amino]-2,5,6-trifluoro-4-[(2-phenylethyl)sulfonyl]benzenesulfonamide]: the Kd was 500 nM at CA I [1], 17 nM at CA II [2], 4 nM at CA VII [3] and 33 nM at CA XII [4]. Moreover, the pKd on CA XIII [5] was 8.17.
As for `CNc1c(F)c(S(N)(=O)=O)c(F)c(F)c1S(=O)(=O)CCc1ccccc1` [Compound 9a, 3-(methylamino)-2,5,6-trifluoro-4-[(2-phenylethyl)sulfonyl]benzenesulfonamide], the results for the equilibrium dissociation constant (Kd) at CA I [1] and on CA VII [3] were 67 nM and 8.3 nM, respectively. Besides, the pKd at CA XIII [5] was 8.89.
For `NS(=O)(=O)c1c(F)c(F)c(S(=O)(=O)CCc2ccccc2)c(N[C@@H](c2ccccc2)[C@H](O)c2ccccc2)c1F` [Compound 9n, 3-{[(1S,2R)-2-hydroxy-1,2-diphenylethyl]amino}-2,5,6-trifluoro-4-[(2-phenylethyl)sulfonyl]benzenesulfonamide], the Kd at CA I [1] was 1700 nM; at CA II [2] it was 33 nM; at CA VII [3], 10 nM; at CA XII [4] it was 250 nM. In addition, the pKd on CA XIII [5] was 8.25.
